Assay results: the NIST ThermoML archive (doi:10.1021/je200921u)
Numbers after ± are expanded uncertainties.

Conditions: Liquid, Ebulliometric method (Recirculating still)

CCO [ethanol]
vapor or sublimation pressure (351.35 K): 101.3 ± 2.6 kPa
vapor or sublimation pressure (356.11 K): 121.3 ± 3.1 kPa
vapor or sublimation pressure (363.55 K): 161.3 ± 4.1 kPa
vapor or sublimation pressure (369.55 K): 201.3 ± 5.1 kPa

CC(C)O [propan-2-ol]
vapor or sublimation pressure (355.35 K): 101.3 ± 2.6 kPa
vapor or sublimation pressure (359.95 K): 121.3 ± 3.1 kPa
vapor or sublimation pressure (367.65 K): 161.3 ± 4.1 kPa
vapor or sublimation pressure (373.65 K): 201.3 ± 5.1 kPa

Cc1ccccc1 [toluene]
vapor or sublimation pressure (383.55 K): 101.3 ± 2.7 kPa
vapor or sublimation pressure (390.25 K): 121.3 ± 3.2 kPa
vapor or sublimation pressure (390.26 K): 121.3 ± 3.2 kPa
vapor or sublimation pressure (400.75 K): 161.3 ± 4.3 kPa
vapor or sublimation pressure (409.65 K): 201.3 ± 5.3 kPa
